Test results as given in publication PMC6444592, “Citrullination of HP1γ chromodomain affects association with chromatin” (Epigenetics & Chromatin, 2019).
“Also recorded” adds a separate entry of the source.

Key:
[1] = test system: H3K9me3(1–16) peptides; experiment: bio-layer interferometry (BLI); type: binding; conditions: 20 mM Hepes KOH pH 7.2, 70 mM KCl; GST fusion; association 120 s, dissociation 120 s; WT 28.0 μM, R38/9K 25.5 μM, R38/9A 28.3 μM and lower concentrations
Procedure: Recombinant mouse full-length HP1 wildtype and mutant proteins were expressed in (as GST fusion proteins), and purified from, Escherichia coli as described. Proteins were concentrated using Amicon Ultra centrifugation filters with a 30 kDa cutoff (Millipore), washed into binding buffer (20 mM Hepes KOH pH 7.2, 70 mM KCl, 1 mM DTT, 0.1% Tween-20, 5% glycerol). Protein concentrations were determined by Bradford protein assay against a BSA standard, and purity was verified by SDS-PAGE followed by Coomassie-blue staining. Real-time binding assays of GST-HP1γ were performed using the BLItz® system (ForteBio) in binding buffer (+ 0.1% BSA). Biotinylated H3(1–16) peptides (NH2-[…](me3)STGGKAP-Biotin) were immobilised to Dip and Read High Precision Streptavidin (SAX) Biosensors (ForteBio), and kinetics for a range of protein concentrations were measured under advanced kinetics settings (1. initial baseline measuring buffer only: 30 s, 2. loading of peptides onto sensors: 120 s, 3. effective baseline measurement: 30 s, 4. association of GST-HP1γ proteins: 120 s, 5. dissociation of GST-HP1γ proteins: 120 s). The data were normalised to the effective baseline signal by subtracting the average baseline value (150–180 s) from each data point (150–420 s). […] Raw data are summarised in Additional file 3: Table S1.

[2] = test system: mESCs; experiment: HP1γ foci formation, fluorescence imaging of mEos3.2; type: cell-based, mouse; conditions: +/− LIF 72 h
Procedure: (§1) Parental E14 mouse embryonic stem cell (mESC) line was profiled by transcriptome analysis, qPCR and potency assays and was routinely tested for mycoplasma contamination and tested negative. Cells were cultured in DMEM (Gibco) supplemented with 15% standard FCS (Gibco), 0.1 mM non-essential amino acids (Gibco), 1% penicillin/streptomycin, 2 mM L-glutamine (Gibco), 1 mM sodium pyruvate (Gibco), 0.1 mM β-mercaptoethanol (Life Technologies) and 10^6 units/l mLIF (ESGRO, Millipore). E14 cells were stored in incubators at 37 °C in 7.5% CO2 (100% humidity) and maintained in 0.1% gelatin coated 10-cm culture dishes with 1:6 passaging every 2 days. Media was changed on a daily basis. E14 ESCs expressing mouse mEos3.2–HaloTag-HP1 fusion proteins were generated by transfecting appropriate pSB7 plasmids into E14 cells using Lipofectamine 2000 transfection reagent (Invitrogen), followed by selection in 600 µg/ml geneticin (Life Technologies). […]
An IX73 Olympus inverted microscope was used with circularly polarised laser beams aligned and focused at the back aperture of an Olympus 1.40 NA 100 × oil objective (Universal Plan Super Apochromat, 100 × , NA 1.40, UPLSAPO100XO/1.4). […] The fluorescence emission was collected through the same objective and then further filtered using a combination of long-pass and band-pass filters (BLP01-561R and FF01-587/35 for 561 nm excitation). […]

[3] = test system: mESCs; experiment: pluripotency marker mRNA (RT-PCR) and morphology of mESCs; type: cell-based, mouse; conditions: mESCs stably expressing fusion protein; +/− LIF; n = 2
Procedure: as §1, with “Technologies). After 2 weeks of geneticin selection, cells were sorted using a Sony SH800S cell sorter for the expression of mEos3.2.” for “Technologies).”
Cells were lysed using QIAzol® lysis reagent (Qiagen) and total RNA was isolated using RNeasy® Mini Kit with in column DNase treatment (Qiagen). […] Relative expression was calculated with the 2^−ΔΔCt method, normalising to the housekeeping gene β-actin. Data were analysed using GraphPad Prism 7 software. […]

## HP1γWT: full-length mouse HP1γ wild type, as GST or mEos3.2–HaloTag fusion protein
[1]
  BLI binding, in words: binds exclusively to H3K9me3 peptides
[2]
  foci formation, WT- versus R38/9A-expressing cells: no apparent difference
[3]
  effect of exogenous expression on pluripotency marker mRNA and morphology: no discernible effect on mESC differentiation

## HP1γR38/9A: HP1γ with alanine substitutions at amino acids 38 and 39 to mimic citrullination
[1]
  BLI binding, in words: begin to plateau at significantly lower amounts compared to the WT protein; also recorded: distinctly different kinetic behaviour compared to the WT protein
[2]
  foci formation, WT- versus R38/9A-expressing cells: no apparent difference
[3]
  effect of exogenous expression on pluripotency marker mRNA and morphology: no discernible effect on mESC differentiation
